Among the test systems are MDA-MB-435; HL-60(TB) leukemia; SK-MEL-28 melanoma; IGROV1 ovarian; A549 NSCLC; HOP-62 NSCLC; NCI-H23 lung; CCRF-CEM leukemia; SF-295 CNS; SN12C renal.
Common to all, as to assay: NCI tumour cell line growth inhibition, 48 h

Results on eleven compounds are retold here after PubChem BioAssay (NCI).

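Protocol summary: plate cells (96-well), add compound at 5 concentrations, incubate 48 h, interpolate endpoints linearly. Abbreviation: GI50, concentration required for 50% inhibition of growth. At the TGI there is no net growth.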

For `CC(C)CNC1=NCC(C)S1` (centres undefined), the TGI in the assay on MDA-MB-435, in the assay on HL-60(TB) leukemia, in the assay on SK-MEL-28 melanoma, in the assay with IGROV1 ovarian, with A549 NSCLC and in the assay on HOP-62 NSCLC was > 100 µM throughout. The TGI in the assay on NCI-H23 lung, in the assay on CCRF-CEM leukemia and in the assay with SF-295 CNS was > 100 µM each time.
`Cc1[nH]c(C(=O)Nc2ccc(C(=O)NCCN)cc2OC(C)C)c(Cl)c1Cl`: the GI50 is 1.66 µM in the assay on MDA-MB-435; 1.76 µM in the assay with SK-MEL-28 melanoma; 1.95 µM with HOP-62 NSCLC; 1.82 µM in the assay with SN12C renal; 2.13 µM in the assay with CCRF-CEM leukemia; 1.76 µM in the assay on SF-295 CNS. Moreover, the TGI with MDA-MB-435 is 3.08 µM; in the assay with SK-MEL-28 melanoma, 3.21 µM; with HOP-62 NSCLC it was 4.53 µM; in the assay on SN12C renal it was 3.41 µM; with CCRF-CEM leukemia it was 5.17 µM; with SF-295 CNS, 3.23 µM.
On to `C=C(CN(C)C)C(=O)c1ccccc1OC`, for which the TGI with MDA-MB-435 was 34.2 µM; with HL-60(TB) leukemia, > 35.8 µM; with SK-MEL-28 melanoma it was 38.2 µM; in the assay on IGROV1 ovarian it was 58.1 µM; in the assay with A549 NSCLC, > 100 µM; with HOP-62 NSCLC it was > 100 µM. The TGI in the assay with NCI-H23 lung is 33.7 µM; in the assay on SN12C renal, 40 µM; in the assay with CCRF-CEM leukemia it was 14.5 µM; in the assay on SF-295 CNS, > 71.9 µM.
On to `COc1cc(/C=N/NC(=O)c2c(Cl)c(Cl)c(Cl)c(Cl)c2-c2nc3ccc(C(=O)c4ccccc4)cc3[nH]2)ccc1O`, for which the TGI in the assay on MDA-MB-435 is > 100 µM; in the assay on HL-60(TB) leukemia it was 61.1 µM; in the assay on SK-MEL-28 melanoma, > 100 µM; in the assay on IGROV1 ovarian, > 100 µM; in the assay with A549 NSCLC it was > 100 µM; in the assay with HOP-62 NSCLC it was > 100 µM. Besides, the TGI in the assay with NCI-H23 lung is > 100 µM; in the assay with SN12C renal it was > 100 µM; in the assay on CCRF-CEM leukemia, 81.6 µM; in the assay on SF-295 CNS, > 100 µM.
For the compound `O=S(=O)(c1ccccc1)C1CC(c2nc3ccccc3[nH]2)=NO1` (centres undefined), the TGI with MDA-MB-435, in the assay on SK-MEL-28 melanoma, in the assay on IGROV1 ovarian, in the assay on A549 NSCLC, in the assay with HOP-62 NSCLC and with NCI-H23 lung was > 100 µM throughout. For the same compound, the TGI in the assay with SN12C renal is > 100 µM; in the assay on CCRF-CEM leukemia it was 82.6 µM; with SF-295 CNS, > 100 µM.
As to `C[N+]1(C(CO)Cc2c[nH]c3ccccc23)Cc2ccccc2C1` (centres undefined), the TGI in the assay with MDA-MB-435, in the assay on HL-60(TB) leukemia, with SK-MEL-28 melanoma, with IGROV1 ovarian, in the assay with A549 NSCLC and with HOP-62 NSCLC was > 100 µM in each case. Further, the TGI with NCI-H23 lung, in the assay on SN12C renal, in the assay with CCRF-CEM leukemia and in the assay on SF-295 CNS was > 100 µM throughout.
Take `CC(C)CCN(CCC(C)C)CC(=O)Nc1ccc(S(=O)(=O)c2ccc(NC(=O)CN(CCC(C)C)CCC(C)C)cc2)cc1`: the GI50 in the assay with MDA-MB-435 is 2.15 µM; in the assay on HL-60(TB) leukemia, 2.22 µM; with SK-MEL-28 melanoma it was 2.64 µM; in the assay with IGROV1 ovarian it was 1.64 µM; in the assay on A549 NSCLC, 5.38 µM; with NCI-H23 lung, 1.81 µM. Moreover, the GI50 with SN12C renal is 3.1 µM; in the assay on CCRF-CEM leukemia, 1.06 µM; with SF-295 CNS it was 3.86 µM. For the same compound, the TGI with MDA-MB-435 is 6.07 µM; in the assay on HL-60(TB) leukemia, 5.79 µM; in the assay with SK-MEL-28 melanoma, 9.98 µM; in the assay on IGROV1 ovarian, 4.5 µM; with A549 NSCLC, 25.7 µM; with NCI-H23 lung it was 4.84 µM. Moreover, the TGI is 25.2 µM in the assay on SN12C renal, 3.87 µM in the assay with CCRF-CEM leukemia and 16.5 µM in the assay with SF-295 CNS.
Regarding `C[C@]12CC[C@H]3[C@@H](CC=C4C[C@@H](O)CC[C@@]43C)[C@@H]1C/C(=C\c1ccncc1)[C@@H]2O`, the TGI is 47.9 µM with MDA-MB-435; 31 µM in the assay on HL-60(TB) leukemia; 51.3 µM in the assay with SK-MEL-28 melanoma; 73.5 µM with IGROV1 ovarian; 61.3 µM in the assay on A549 NSCLC; > 100 µM in the assay with HOP-62 NSCLC. Also, the TGI with NCI-H23 lung was 33.6 µM; in the assay on SN12C renal it was 34.8 µM; in the assay on CCRF-CEM leukemia, 50.8 µM; in the assay on SF-295 CNS it was 35.5 µM.
`Cc1ncc(C(=O)Nc2ccc(CN3CCN(C)CC3)c(C(F)(F)F)c2)cc1C#Cc1cnc(N)c2ccc(C#N)cc12`: the GI50 with HL-60(TB) leukemia is 0.4 µM; in the assay on NCI-H23 lung it was 0.0959 µM; with SN12C renal, < 0.0124 µM; in the assay with SF-295 CNS it was 0.0545 µM. For the same compound, the TGI in the assay with HL-60(TB) leukemia is > 100 µM; in the assay on IGROV1 ovarian, 0.23 µM; with NCI-H23 lung, 3.28 µM; in the assay on SN12C renal, 5.01 µM; in the assay with SF-295 CNS, 33.1 µM.
With `O=C1Nc2cccc(Cl)c2/C1=C\c1cccnc1`, the TGI in the assay on MDA-MB-435 is 19.8 µM; in the assay with HL-60(TB) leukemia it was > 100 µM; with SK-MEL-28 melanoma, > 100 µM; in the assay on A549 NSCLC it was 33.6 µM; in the assay on HOP-62 NSCLC, 19.1 µM; in the assay with NCI-H23 lung, 15.8 µM. For the same compound, the TGI in the assay on SN12C renal is 20.5 µM; in the assay on CCRF-CEM leukemia, > 100 µM; in the assay with SF-295 CNS, 34.6 µM.
Take `Cc1csc2nc(-c3cccc([N+](=O)[O-])c3)c(/C=N/N=C(N)N)n12`: the TGI was 3.03 µM in the assay on MDA-MB-435; 2.26 µM in the assay on HL-60(TB) leukemia; 3.15 µM with SK-MEL-28 melanoma; 3.19 µM in the assay on IGROV1 ovarian; 3.34 µM in the assay on A549 NSCLC; 3.49 µM with NCI-H23 lung. Further, the TGI in the assay on SN12C renal is 3.11 µM; in the assay on SF-295 CNS, 3.12 µM.
